Patent publication US20250221988A1 (Cullgen (Shanghai), Inc., priority 2022, published 2025)
Read-outs that look alike come from different tables or passages of the source.

Columns and labels:
MV4;11 cells = experiment: Cell viability assay (CellTiter-Glo) in MV4;11 cells; format: cell-based; settings: read-out: MV4
Procedure, shortened: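 5000 cells/well in RPMI 1640 or DMEM with 10% FBS, treated with 8- or 12-point 3-fold compound dilutions, with or without gilteritinib (10 nM for MV4;11, 20 nM for MOLM-13). Viability by CellTiter-Glo after three days; IC50 by nonlinear least-squares regression.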

MOLM-13 cells = experiment: Cell viability assay (CellTiter-Glo) in MOLM-13 cells; format: cell-based
[1] = Homo sapiens, MV4-11, 72 h, MV4;11 cells, compound alone, three days, 11 IC50
[2] = MV4;11 cells, with 10 nM gilteritinib, three days, 11 IC50 (nM) + 10 nM Gil
[3] = Homo sapiens, 72 h, MOLM-13 cells, compound alone, three days, read-out: MOLM-13 IC50
[4] = MOLM-13 cells, with gilteritinib, three days, read-out: MOLM-13 IC50 (nM) + 10 nM Gil
[5] = Homo sapiens, MV4-11, 72 h, 11 IC50 (nM)
[6] = 11 IC50 (nM) + 10 nM Gil, MV4;11 cells, with 10 nM gilteritinib, three days
[7] = Homo sapiens, MOLM-13, 72 h, read-out: MOLM-13 IC50 (nM)
[8] = read-out: MOLM-13 IC50 (nM) + 10 nM Gil, MOLM-13 cells, with gilteritinib, three days

SMILES | IC50 (MV4;11 cells; [1]) [nM] | IC50 (MV4;11 cells; [2]) [nM] | IC50 (MOLM-13 cells; [3]) [nM] | IC50 (MOLM-13 cells; [4]) [nM] | IC50 (MV4;11 cells; [5]) [nM] | IC50 (MV4;11 cells; [6]) [nM] | IC50 (MOLM-13 cells; [7]) [nM] | IC50 (MOLM-13 cells; [8]) [nM] | sensitization of AML cells to GSPT1 degraders by FLT3 inhibition (MOLM-13 cells; MOLM-13 cells, with or without 20 nM gilteritinib, 3 days)
Cc1ccnc2c1c(C1CC1)nn2[C@H]1C[C@H](CNc2ccc3c(c2)C(=O)N(C2CCC(=O)NC2=O)C3=O)C1 (stereo partly drawn) [GS-679, 5-(((Trans-3-(3-cyclopropyl-4-methyl-1H-pyrazolo[3,4-b]pyridin-1-yl)cyclobutyl)methyl)amino)-2-(2,6-dioxopiperidin-3-yl)isoindoline-1,3-dione] | > 1000 | 100 to 1000 | > 1000 | 100 to 1000 |  |  |  |  | 
O=C1CCC(N2Cc3ccc(CC[C@H]4C[C@H](n5cc(-c6cnc7ccccc7n6)c(C6CC6)n5)C4)cc3C2=O)C(=O)N1 (stereo partly drawn) [GS-725, 3-(6-(2-(Trans-3-(3-cyclopropyl-4-(quinoxalin-2-yl)-1H-pyrazol-1-yl)cyclobutyl)ethyl)-1-oxoisoindolin-2-yl)piperidine-2,6-dione] |  |  |  |  | 100 to 1000 | 10 to 100 | > 1000 | 100 to 1000 | 
Cn1cc(Nc2cn([C@H]3C[C@H](CNc4ccc5c(c4)C(=O)N(C4CCC(=O)NC4=O)C5=O)C3)nc2C2CC2)cn1 (stereo partly drawn) [GS-773, 5-(((Trans-3-(3-cyclopropyl-4-((1-methyl-1H-pyrazol-4-yl)amino)-1H-pyrazol-1-yl)cyclobutyl)methyl)amino)-2-(2,6-dioxopiperidin-3-yl)isoindoline-1,3-dione] | < 10 | < 10 | 10 to 100 | < 10 |  |  |  |  | 
O=C1CCC(N2C(=O)c3ccc(NC[C@H]4C[C@H](n5cc(C6CCCC(O)C6)c(C6CC6)n5)C4)cc3C2=O)C(=O)N1 (stereo partly drawn) [GS-703, 5-(((Trans-3-(3-cyclopropyl-4-(3-hydroxycyclohexyl)-1H-pyrazol-1-yl)cyclobutyl)methyl)amino)-2-(2,6-dioxopiperidin-3-yl)isoindoline-1,3-dione] | 10 to 100 | 10 to 100 | 100 to 1000 | 10 to 100 |  |  |  |  | 
CC(C)n1ccc2nc(-c3cn([C@H]4C[C@H](CNc5ccc6c(c5)C(=O)N(C5CCC(=O)NC5=O)C6=O)C4)nc3C3CC3)ccc21 (stereo partly drawn) [GS-696, 5-(((Trans-3-(3-cyclopropyl-4-(1-isopropyl-1H-pyrrolo[3,2-b]pyridin-5-yl)-1H-pyrazol-1-yl)cyclobutyl)methyl)amino)-2-(2,6-dioxopiperidin-3-yl)isoindoline-1,3-dione] | 100 to 1000 | 10 to 100 | > 1000 | 10 to 100 |  |  |  |  | 
N[C@H]1C[C@H](n2cc3cnc(-c4cn([C@H]5C[C@H](CNc6ccc7c(c6)C(=O)N(C6CCC(=O)NC6=O)C7=O)C5)nc4C4CC4)cc3n2)C1 (stereo partly drawn) [GS-786, 5-(((Trans-3-(4-(2-(trans-3-aminocyclobutyl)-2H-pyrazolo[4,3-c]pyridin-6-yl)-3-cyclopropyl-1H-pyrazol-1-yl)cyclobutyl)methyl)amino)-2-(2,6-dioxopiperidin-3-yl)isoindoline-1,3-dione] | < 10 | < 10 | 10 to 100 | < 10 |  |  |  |  | 
O=C1CCC(N2C(=O)c3ccc(NC[C@H]4C[C@H](n5cc(NC6CCCCC6)c(C6CC6)n5)C4)cc3C2=O)C(=O)N1 (stereo partly drawn) [GS-667, 5-(((Trans-3-(4-(cyclohexylamino)-3-cyclopropyl-1H-pyrazol-1-yl)cyclobutyl)methyl)amino)-2-(2,6-dioxopiperidin-3-yl)isoindoline-1,3-dione] |  |  |  |  | 10 to 100 | < 10 | 10 to 100 | 10 to 100 | 
CN(C)c1nc(-c2cn([C@H]3C[C@H](CNc4ccc5c(c4)C(=O)N(C4CCC(=O)NC4=O)C5=O)C3)nc2C2CC2)ccc1F (stereo partly drawn) [GS-707, 5-(((Trans-3-(3-cyclopropyl-4-(6-(dimethylamino)-5-fluoropyridin-2-yl)-1H-pyrazol-1-yl)cyclobutyl)methyl)amino)-2-(2,6-dioxopiperidin-3-yl)isoindoline-1,3-dione] |  |  |  |  | 10 to 100 | < 10 | 10 to 100 | 10 to 100 | FLT3 inhibition sensitizes AML cells
CC(C)n1ncc2cnc(-c3cn([C@H]4C[C@H](CNc5ccc6c(c5)C(=O)N(C5CCC(=O)NC5=O)C6=O)C4)nc3C(F)F)cc21 (stereo partly drawn) [GS-656, 5-(((Trans-3-(3-(difluoromethyl)-4-(1-isopropyl-1H-pyrazolo[4,3-c]pyridin-6-yl)-1H-pyrazol-1-yl)cyclobutyl)methyl)amino)-2-(2,6-dioxopiperidin-3-yl)isoindoline-1,3-dione] | 10 to 100 | 10 to 100 | 100 to 1000 | 10 to 100 |  |  |  |  | 
Cn1ncc2cnc(-c3cn([C@H]4C[C@H](COc5ccc6c(c5)C(=O)N(C5CCC(=O)NC5=O)C6=O)C4)nc3C3CC3)cc21 (stereo partly drawn) [GS-761, 5-((Trans-3-(3-cyclopropyl-4-(1-methyl-1H-pyrazolo[4,3-c]pyridin-6-yl)-1H-pyrazol-1-yl)cyclobutyl)methoxy)-2-(2,6-dioxopiperidin-3-yl)isoindoline-1,3-dione] | > 1000 | 100 to 1000 | > 1000 | 100 to 1000 |  |  |  |  | 
Cn1ncc2cnc(-c3cn([C@H]4C[C@H](CNc5ccc6c(c5)C(=O)N(C5CCC(=O)NC5=O)C6=O)C4)nc3C(F)F)cc21 (stereo partly drawn) [GS-657, 5-(((Trans-3-(3-(difluoromethyl)-4-(1-methyl-1H-pyrazolo[4,3-c]pyridin-6-yl)-1H-pyrazol-1-yl)cyclobutyl)methyl)amino)-2-(2,6-dioxopiperidin-3-yl)isoindoline-1,3-dione] | 10 to 100 | < 10 | 10 to 100 | < 10 |  |  |  |  | 
O=C1CCC(N2C(=O)c3cc(F)c(NCCC[C@H]4C[C@H](n5cc(-c6cnc7ccccc7n6)c(C6CC6)n5)C4)cc3C2=O)C(=O)N1 (stereo partly drawn) [GS-718, 5-((3-(Trans-3-(3-cyclopropyl-4-(quinoxalin-2-yl)-1H-pyrazol-1-yl)cyclobutyl)propyl)amino)-2-(2,6-dioxopiperidin-3-yl)-6-fluoroisoindoline-1,3-dione] | > 1000 |  | > 1000 |  |  |  |  |  | 
Cn1ccc2ccc(-c3cn([C@H]4C[C@H](CNc5ccc6c(c5)C(=O)N(C5CCC(=O)NC5=O)C6=O)C4)nc3C3CC3)nc21 (stereo partly drawn) [GS-722, 5-(((trans-3-(3-cyclopropyl-4-(1-methyl-1H-pyrrolo[2,3-b]pyridin-6-yl)-1H-pyrazol-1-yl)cyclobutyl)methyl)amino)-2-(2,6-dioxopiperidin-3-yl)isoindoline-1,3-dione] | 10 to 100 | < 10 | 10 to 100 | < 10 |  |  |  |  | 
COC1CCCCC1c1cn([C@H]2C[C@H](CNc3ccc4c(c3)C(=O)N(C3CCC(=O)NC3=O)C4=O)C2)nc1C1CC1 (stereo partly drawn) [GS-646, 5-(((Trans-3-(3-cyclopropyl-4-(2-methoxycyclohexyl)-1H-pyrazol-1-yl)cyclobutyl)methyl)amino)-2-(2,6-dioxopiperidin-3-yl)isoindoline-1,3-dione] | 10 to 100 | 10 to 100 | 100 to 1000 | 10 to 100 |  |  |  |  | 
N[C@H]1C[C@@H](n2cc3cnc(-c4cn([C@H]5C[C@H](CNc6ccc7c(c6)C(=O)N(C6CCC(=O)NC6=O)C7=O)C5)nc4C4CC4)cc3n2)C1 (stereo partly drawn) [GS-785, 5-(((Trans-3-(4-(2-(cis-3-aminocyclobutyl)-2H-pyrazolo[4,3-c]pyridin-6-yl)-3-cyclopropyl-1H-pyrazol-1-yl)cyclobutyl)methyl)amino)-2-(2,6-dioxopiperidin-3-yl)isoindoline-1,3-dione] | < 10 | < 10 | 10 to 100 | < 10 |  |  |  |  | 
Cc1nc(-c2cn([C@H]3C[C@@H]3CNc3ccc4c(c3)C(=O)N(C3CCC(=O)NC3=O)C4=O)nc2C2CC2)ccc1F (relative stereo) [GS-643, 5-(((Trans-2-(3-cyclopropyl-4-(5-fluoro-6-methylpyridin-2-yl)-1H-pyrazol-1-yl)cyclopropyl)methyl)amino)-2-(2,6-dioxopiperidin-3-yl)isoindoline-1,3-dione] | > 1000 |  | > 1000 |  |  |  |  |  | 
CC(C)n1ccc2c(-c3cn([C@H]4C[C@H](CNc5ccc6c(c5)C(=O)N(C5CCC(=O)NC5=O)C6=O)C4)nc3C3CC3)ncc(F)c21 (stereo partly drawn) [GS-769, 5-(((Trans-3-(3-cyclopropyl-4-(7-fluoro-1-isopropyl-1H-pyrrolo[3,2-c]pyridin-4-yl)-1H-pyrazol-1-yl)cyclobutyl)methyl)amino)-2-(2,6-dioxopiperidin-3-yl)isoindoline-1,3-dione] | < 10 | < 10 | < 10 | < 10 |  |  |  |  | 
O=C1CCC(N2C(=O)c3ccc(NC[C@H]4C[C@H](n5cc(-c6ccc7cn[nH]c7n6)c(C6CC6)n5)C4)cc3C2=O)C(=O)N1 (stereo partly drawn) [GS-714, 5-(((Trans-3-(3-cyclopropyl-4-(1H-pyrazolo[3,4-b]pyridin-6-yl)-1H-pyrazol-1-yl)cyclobutyl)methyl)amino)-2-(2,6-dioxopiperidin-3-yl)isoindoline-1,3-dione] | 10 to 100 | 10 to 100 | 100 to 1000 | 10 to 100 |  |  |  |  | 
CN1CCC(n2ncc3cnc(-c4cn([C@H]5C[C@H](CNc6ccc7c(c6)C(=O)N(C6CCC(=O)NC6=O)C7=O)C5)nc4C4CC4)cc32)CC1 (stereo partly drawn) [GS-770, 5-(((Trans-3-(3-cyclopropyl-4-(1-(1-methylpiperidin-4-yl)-1H-pyrazolo[4,3-c]pyridin-6-yl)-1H-pyrazol-1-yl)cyclobutyl)methyl)amino)-2-(2,6-dioxopiperidin-3-yl)isoindoline-1,3-dione] | 10 to 100 | 10 to 100 | 10 to 100 | 10 to 100 |  |  |  |  | 
